Source: patent publication US20260184725A1, “CYCLIC 2-AMINOPYRIMIDINE COMPOUND AND PHARMACEUTICAL COMPOSITION AND USE THEREOF” (SHANGHAI INSTITUTE OF ORGANIC CHEMISTRY, CHINESE ACADEMY OF …, priority 2023, published 2026)
Like-named read-outs stand apart in the source and are kept apart here.

Assays:
[1] = tested on: PC-9-OR (19del/T790M/C797S); assay: CCK-8 cell proliferation, PC-9-OR; type: cell-based; details: PC9-OR, read-out: Average value of IC50 of inhibition against EGFR-mutant cells growth, PC-9-OR (19del/T790M/C797S)
From the text: (§1) Ba/F3 cells were obtained from Deutsche Sammlung von Mikroorganismen und Zellkulturen GmbH (DSMZ). Ba/F3 cells stably expressing EGFR19del/T790M/C797S or EGFR L858R/T790M/C797S were generated by infecting parental cells with corresponding retroviruses. PC-9-OR was a tumor cell model obtained by simultaneously knocking in T790M and C797S mutations into 19del-activating mutation-dependent PC-9 tumor cells using CRISPR technology. This model, which proliferated dependent on EGFR19del/T790M/C797S resistance mutation, was used to evaluate the inhibitory activity of compounds against EGFR19del/T790M/C797S resistance mutants (Cancer Science. 2022; 113:709-720). All cells used in the study were verified by short tandem repeat (STR) analysis conducted by Genesky.
(§2) Tumor cell viability was assessed using a CCK-8 cell counting kit (A311-01/02, Vazyme, Nanjing, China). Cells were seeded at a density of 3000 cells per well into 96-well plates and cultured overnight. Subsequently, the cells were treated with compounds of different concentrations and incubated for 72 hours. After 72 hours, 10 μL of CCK-8 solution was added to each well. The plates were then returned to the incubator and incubated at 37° C. for 2 hours. The absorbance was measured at 450 nm using a microplate reader. A calibration curve was constructed using data obtained from wells containing known numbers of viable cells.

[2] = target: BaF3-EGFR (19del/T790M/C797S) (Homo sapiens, UniProt P00533, T790M/C797S, cells depend on it, form not given); assay: CCK-8 cell proliferation, BaF3-EGFR(19del/T790M/C797S); type: cell-based; details: CCK-8, 72 hours; read-out: Average value of IC50 of inhibition against EGFR-mutant cells growth, BaF3-EGFR (19del/T790M/C797S)
Sequence of BaF3-EGFR (19del/T790M/C797S) (P00533 with tags, fused parts or gaps DEL746-750/T790M/C797S, form open): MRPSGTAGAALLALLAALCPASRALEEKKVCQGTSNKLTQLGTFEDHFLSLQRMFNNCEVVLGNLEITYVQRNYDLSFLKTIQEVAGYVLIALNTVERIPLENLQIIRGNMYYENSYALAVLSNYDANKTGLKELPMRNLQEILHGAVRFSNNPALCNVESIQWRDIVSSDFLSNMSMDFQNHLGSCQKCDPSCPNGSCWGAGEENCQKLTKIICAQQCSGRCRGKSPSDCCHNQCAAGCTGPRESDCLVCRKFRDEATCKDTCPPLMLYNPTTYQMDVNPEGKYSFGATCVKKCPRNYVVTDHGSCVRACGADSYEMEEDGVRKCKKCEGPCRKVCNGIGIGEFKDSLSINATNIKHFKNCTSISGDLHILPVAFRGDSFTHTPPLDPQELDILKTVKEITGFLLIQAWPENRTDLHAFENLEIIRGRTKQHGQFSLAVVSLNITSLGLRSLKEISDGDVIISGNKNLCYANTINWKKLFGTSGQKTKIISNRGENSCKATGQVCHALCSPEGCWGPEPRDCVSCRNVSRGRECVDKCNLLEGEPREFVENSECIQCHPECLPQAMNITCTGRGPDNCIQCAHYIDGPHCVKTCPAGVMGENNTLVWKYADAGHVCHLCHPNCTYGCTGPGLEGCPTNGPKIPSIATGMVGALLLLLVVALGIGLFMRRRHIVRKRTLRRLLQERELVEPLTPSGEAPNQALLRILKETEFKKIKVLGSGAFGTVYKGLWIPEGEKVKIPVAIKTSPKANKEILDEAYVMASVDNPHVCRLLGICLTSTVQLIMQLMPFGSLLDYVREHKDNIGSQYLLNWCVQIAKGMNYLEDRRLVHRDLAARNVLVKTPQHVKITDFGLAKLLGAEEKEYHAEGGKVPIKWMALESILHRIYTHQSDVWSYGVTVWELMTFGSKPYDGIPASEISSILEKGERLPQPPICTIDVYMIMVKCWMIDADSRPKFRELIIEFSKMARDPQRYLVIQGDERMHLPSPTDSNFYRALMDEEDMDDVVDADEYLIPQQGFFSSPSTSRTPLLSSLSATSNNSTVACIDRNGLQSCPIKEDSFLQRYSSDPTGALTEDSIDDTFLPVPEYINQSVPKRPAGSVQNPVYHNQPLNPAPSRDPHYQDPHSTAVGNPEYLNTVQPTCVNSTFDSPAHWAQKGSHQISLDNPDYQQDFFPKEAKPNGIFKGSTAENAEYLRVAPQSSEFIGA
Method: (§3) Ba/F3 cells were obtained from Deutsche Sammlung von Mikroorganismen und Zellkulturen GmbH (DSMZ). […] All cells used in the study were verified by short tandem repeat (STR) analysis conducted by Genesky.
as §2

BaF3 parent cell = assay: CCK-8 cell proliferation, BaF3 parent cell; type: cell-based; details: Mus musculus, read-out: Average value of IC50 of inhibition against cells growth, BaF3 parent cell
From the text: as §1, §2

[3] = target: BaF3-EGFR (L858R/T790M/C797S) (Homo sapiens, UniProt P00533, T790M/C797S/L858R, cells depend on it); assay: CCK-8 cell proliferation, BaF3-EGFR(L858R/T790M/C797S); type: cell-based; details: CCK-8, 72 hours; read-out: Average value of IC50 of inhibition against EGFR-mutant cells growth, BaF3-EGFR (L858R/T790M/C797S)
Sequence of BaF3-EGFR (L858R/T790M/C797S) (P00533 whole entry T790M/C797S/L858R): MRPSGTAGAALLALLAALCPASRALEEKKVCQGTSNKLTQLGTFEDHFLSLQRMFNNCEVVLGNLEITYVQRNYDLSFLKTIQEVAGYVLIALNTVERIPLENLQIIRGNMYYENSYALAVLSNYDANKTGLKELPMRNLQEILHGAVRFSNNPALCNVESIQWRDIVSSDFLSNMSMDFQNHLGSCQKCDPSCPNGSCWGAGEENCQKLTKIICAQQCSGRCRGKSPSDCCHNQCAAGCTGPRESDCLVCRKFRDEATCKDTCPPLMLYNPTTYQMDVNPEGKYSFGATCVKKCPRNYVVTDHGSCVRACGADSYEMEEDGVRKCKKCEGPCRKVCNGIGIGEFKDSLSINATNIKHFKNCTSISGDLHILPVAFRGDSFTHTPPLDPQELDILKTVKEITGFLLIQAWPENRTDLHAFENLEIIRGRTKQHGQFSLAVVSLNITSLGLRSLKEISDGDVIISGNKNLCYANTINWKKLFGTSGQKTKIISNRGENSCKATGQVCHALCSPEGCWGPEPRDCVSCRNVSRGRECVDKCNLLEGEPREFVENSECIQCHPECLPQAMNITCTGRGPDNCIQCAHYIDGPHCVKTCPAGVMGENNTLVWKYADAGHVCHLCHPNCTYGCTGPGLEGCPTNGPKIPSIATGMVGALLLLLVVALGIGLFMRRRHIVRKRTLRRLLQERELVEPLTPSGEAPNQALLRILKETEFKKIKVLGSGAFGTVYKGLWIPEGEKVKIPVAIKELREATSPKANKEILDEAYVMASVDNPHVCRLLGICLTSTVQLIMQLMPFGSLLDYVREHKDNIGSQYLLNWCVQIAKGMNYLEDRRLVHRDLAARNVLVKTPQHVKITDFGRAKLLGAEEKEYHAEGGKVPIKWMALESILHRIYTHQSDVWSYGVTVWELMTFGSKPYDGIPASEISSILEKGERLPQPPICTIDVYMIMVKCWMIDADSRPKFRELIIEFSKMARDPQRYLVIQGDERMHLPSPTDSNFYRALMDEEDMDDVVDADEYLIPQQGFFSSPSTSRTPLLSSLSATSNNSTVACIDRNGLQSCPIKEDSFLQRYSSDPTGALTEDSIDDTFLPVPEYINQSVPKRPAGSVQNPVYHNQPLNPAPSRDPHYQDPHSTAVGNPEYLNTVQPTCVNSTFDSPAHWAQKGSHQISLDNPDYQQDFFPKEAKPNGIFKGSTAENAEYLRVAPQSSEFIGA
Method: as §3, §2

EGFR^19del/T790M/C797S = target: T1, EGFR^19del/T790M/C797S (Homo sapiens, UniProt P00533, T790M/C797S, form not given); assay: ELISA kinase activity inhibition, EGFR 19del/T790M/C797S; type: biochemical; details: ATP 5 μM, read-out: The average IC50 value (nM) for inhibiting the activity of different tyrosine kinases, EGFR^19del/T790M/C797S
T1 construct: fused on or other part: Probably a GST tag on the cytoplasmic fragment, as in the vendor's product
T1 sequence (P00533 with tags, fused parts or gaps DEL746-750/T790M/C797S, form open): as the sequence (P00533 with tags, fused parts or gaps DEL746-750/T790M/C797S, form open) above
Method: (§4) EGFR (WT) is a wild-type epidermal growth factor receptor.
(§5) Enzyme-Linked Immunosorbent Assay (ELISA) was used to detect the inhibitory effect of compounds on kinase activity.
(§6) The main experimental steps were as follows: Enzyme reaction substrate Poly (Glu, Tyr)4:1 was diluted with potassium free PBS (10 mM sodium phosphate buffer, 150 mM NaCl, pH 7.2-7.4) to 20 μg/mL, and reacted at 37° C. for 12 hours to 16 hours to coat the enzyme-linked immunosorbent assay plate. ATP solution (final concentration 5 μM) diluted with reaction buffer (50 mM HEPES pH 7.4, 50 mM MgCl2, 0.5 mM MnCl2, 0.2 mM Na3VO4, 1 mM DTT) was added to each well, followed by the test compound or solvent control, then the kinase reaction was initiated and the plate was shaken at 37° C. for 1 hour. The plate was washed three times with T-PBS, then added antibody PY99. The plate was shaken at 37° C. for 0.5 hours. After washing the plate with T-PBS, added horseradish peroxidase-labeled IgG and shaken at 37° C. for 0.5 hours. After washing the plate again, added 2 mg/mL of OPD colorimetric solution and incubated at 25° C. in the dark for 1 minutes to 10 minutes. […] The IC50 values were obtained from the inhibition curve analysis.

EGFR^L858R/T790M/C797S = EGFR^L858R/T790M/C797S (Homo sapiens, UniProt P00533, C797S/L858R/T790M); assay: ELISA kinase activity inhibition, EGFR L858R/T790M/C797S; type: biochemical; details: ATP 5 μM, read-out: The average IC50 value (nM) for inhibiting the activity of different tyrosine kinases, EGFR^L858R/T790M/C797S
Method: as §5, §6

EGFR^WT = target: T2, EGFR^WT (Homo sapiens, UniProt P00533); assay: ELISA kinase activity inhibition, wild-type EGFR; type: biochemical; details: ATP 5 μM, read-out: The average IC50 value (nM) for inhibiting the activity of different tyrosine kinases, EGFR^WT
T2 construct: purchased Eurofins
T2 sequence (P00533 25-1210): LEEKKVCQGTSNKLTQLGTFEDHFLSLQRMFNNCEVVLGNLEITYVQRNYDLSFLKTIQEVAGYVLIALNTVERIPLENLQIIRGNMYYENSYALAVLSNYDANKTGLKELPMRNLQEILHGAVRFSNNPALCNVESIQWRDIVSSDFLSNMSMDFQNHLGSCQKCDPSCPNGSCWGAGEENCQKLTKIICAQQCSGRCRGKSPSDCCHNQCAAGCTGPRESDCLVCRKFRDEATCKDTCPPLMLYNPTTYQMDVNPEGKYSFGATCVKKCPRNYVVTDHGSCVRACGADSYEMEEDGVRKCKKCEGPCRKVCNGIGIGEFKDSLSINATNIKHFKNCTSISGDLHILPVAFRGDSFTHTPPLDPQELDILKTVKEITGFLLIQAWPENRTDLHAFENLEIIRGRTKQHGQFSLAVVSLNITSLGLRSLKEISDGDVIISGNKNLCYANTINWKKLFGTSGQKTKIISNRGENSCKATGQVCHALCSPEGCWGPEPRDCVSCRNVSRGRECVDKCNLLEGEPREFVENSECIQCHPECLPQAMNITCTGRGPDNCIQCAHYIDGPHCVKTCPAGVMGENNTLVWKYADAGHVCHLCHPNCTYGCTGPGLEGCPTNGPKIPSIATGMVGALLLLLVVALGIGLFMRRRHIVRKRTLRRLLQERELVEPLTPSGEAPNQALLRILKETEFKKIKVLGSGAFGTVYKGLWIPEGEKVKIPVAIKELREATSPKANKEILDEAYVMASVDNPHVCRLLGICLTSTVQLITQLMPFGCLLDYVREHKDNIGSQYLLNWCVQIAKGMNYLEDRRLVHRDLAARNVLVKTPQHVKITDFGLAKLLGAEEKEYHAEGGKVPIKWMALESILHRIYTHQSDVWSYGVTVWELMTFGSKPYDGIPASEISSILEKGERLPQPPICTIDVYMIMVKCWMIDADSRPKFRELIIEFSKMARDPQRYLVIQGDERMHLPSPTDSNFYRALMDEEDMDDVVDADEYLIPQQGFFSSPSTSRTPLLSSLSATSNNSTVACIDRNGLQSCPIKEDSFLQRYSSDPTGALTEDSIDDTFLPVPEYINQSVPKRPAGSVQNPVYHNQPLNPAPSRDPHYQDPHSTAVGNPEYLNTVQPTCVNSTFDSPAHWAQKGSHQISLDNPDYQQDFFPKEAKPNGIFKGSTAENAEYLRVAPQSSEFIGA
Method: as §4, §5, §6

[4] = Pharmacokinetic parameters in rats; type: in vivo; details: male, Sprague-Dawley, plasma, rat
Method: Sprague-Dawley rats (males, 3 per group), weighing 180 g to 220 g, were administered test compounds intravenously and orally at doses of 1 mg/kg and 5 mg/kg, respectively. The compounds were dissolved in a mixed solvent (5% DMSO+10% Solutol+85% PBS) for intravenous injection. 0.5% CMC-Na solution (800 cps to 1200 cps) was used as a suspension agent for oral administration. At designated time points, 0.2 mL of blood samples were collected via the jugular vein and placed into tubes containing K2-EDTA, stored on ice, and then centrifuged. Sampling intervals for the injection group were 0.083, 0.25, 0.5, 1, 2, 4, 8, and 24 hours, while for the oral group, sampling intervals were 0.25, 0.5, 1, 2, 4, 6, 8, and 24 hours. The blood samples were centrifuged at 6800 g for 6 minutes at 2° C. to 8° C. within 1 hour after collection and stored frozen at approximately −80° C. Subsequently, 200 μL of MeOH was used to precipitate 20 μL of plasma samples containing 100 ng/mL IS. The mixture was vortexed for 1 minute and then centrifuged at 18000 g for 7 minutes. 200 μL of the supernatant was transferred to a 96-well plate, and 1 μL of the supernatant sample was injected for LC-MS/MS analysis. Finally, Phoenix WinNonlin7.0 software was used to calculate the pharmacokinetic (PK) parameters.

GI50 [2]	GI50 [3]	IC50 (EGFR^19del/T790M/C797S)	IC50 (BaF3 parent cell; BaF3, CCK-8, 72 hours)	IC50 (EGFR^L858R/T790M/C797S)	IC50 (EGFR^WT)	Structure (SMILES)	also measured
70 nM	74 nM	6.3 nM	217 nM	4.9 nM	> 1000 nM	CCS(=O)(=O)n1cc2c3ccc(cc31)OCCCn1cc(cn1)-c1cc(ccc1N1CCOCC1)Nc1ncc(Cl)c-2n1 [HC871, (Z)-2^5-Chloro-1^1-(ethylsulfonyl)-4^4-morpholino-1^1H,5^1H-9-oxa-3-aza-1(3,6)-indola-2(4,2)-pyrimidina-5(4,1)-pyrazola-4(1,3)-benzenacyclononaphane]	IC50 ([1]; CCK-8, 72 hours): 85 nM
170 nM	336 nM	4.3 nM	950 nM	0.4 nM	111 nM	CCS(=O)(=O)n1cc2c3ccc(cc31)OCCCn1cc(cn1)-c1cc(ccc1N1CCOCC1)Nc1nccc-2n1 [HC950, 1^1-ethylsulfonyl-4^6-methyl-4^4-(4-methylpiperazin-1-yl)-1^1H,5^1H-9-oxa-3-aza-1(3,6)-indole-2(4,2)-pyrimidine-5(4,1)-pyrazole-4(1,3)-benzenacyclononaphane]	IC50 ([1]; CCK-8, 72 hours): 149 nM
371 nM	455 nM	7.4 nM	3180 nM	11.8 nM	186 nM	CCOc1cc(N2CCOCC2)c2cc1Nc1nccc(n1)-c1cn(S(=O)(=O)CC)c3cc(ccc13)OCCCn1cc-2cn1 [HC9596, (Z)-4^6-ethoxy-1^1-ethylsulfonyl-4^4-morpholino-1^1H,5^1H-9-oxa-3-aza-1(3,6)-indole-2(4,2)-pyrimidine-5(4,1)-pyrazole-4(1,3)-benzenacyclononaphane]	–
–	–	> 1000 nM	–	> 1000 nM	> 1000 nM	CCS(=O)(=O)n1cc2c3ccc(cc31)OCCCn1cc(cn1)-c1cc(cc(CCC(C)(C)C)c1N1CCOCC1)Nc1ncc(Cl)c-2n1 [HC90042, 2^5-chloro-4^5-(E)-3,3-dimethylbutyl)-1^1-ethylsulfonyl-4^4-morpholin-1^1H,5^1H-9-oxa-3-aza-1(3,6)-indole-2(4,2)-pyrimidin-5(4,1)-pyrazolol-4 (1,3)-benzenacyclononaphane]	–

Second part, the compound before the results:

Structure (SMILES)	GI50 [2]	GI50 [3]	IC50 (EGFR^19del/T790M/C797S)	IC50 (BaF3 parent cell; BaF3, CCK-8, 72 hours)	IC50 (EGFR^L858R/T790M/C797S)	IC50 (EGFR^WT)	also measured
COc1cc(N2CCC(N3CCN(C)CC3)CC2)ccc1Nc1ncc(Cl)c(Nc2ccccc2P(C)(C)=O)n1 [Brigatinib, reference compound]	221 nM	777 nM	–	–	–	–	IC50 ([1]; 72 h): 1450 nM; IC50 (BaF3 parent cell; BaF3, 72 h): 1480 nM
CCc1cc(N2CCOCC2)c2cc1Nc1nccc(n1)-c1cn(S(=O)(=O)CC)c3cc(ccc13)OCCCn1ccc-2n1 [FBH-3-47, (Z)-4^6-ethyl-1^1-(ethylsulfonyl)-4^4-morpholino-1^1H,5^1H-9-oxa-3-aza-1(3,6)-indole-2(4,2)-pyrimidine-5(4,1)-pyrazol-4(1,3)-benzenacyclononaphane]	229 nM	327 nM	23.3 nM	2230 nM	54.8 nM	> 1000 nM	–
C=CC(=O)Nc1cc(Nc2nccc(-c3cn(C)c4ccccc34)n2)c(OC)cc1N(C)CCN(C)C [Osimertinib, reference compound]	–	–	–	2370 nM	–	–	IC50 ([1]; CCK-8, 72 hours): 2100 nM
CCS(=O)(=O)n1cc2c3ccc(cc31)OCC(C)Cn1cc(cn1)-c1cc(c(OC)cc1N1CCOCC1)Nc1nccc-2n1 (stereo not shown) [WQX-1-80, (Z)-1^1-(ethylsulfonyl)-4^6-Methoxy-7-methyl-4^4-morpholino-1^1H,5^1H-9-oxa-3-aza-1(3,6)-indole-2(4,2)-pyrimidin-5(4,1)-pyrazol-4(1,3)-benzenacyclononaphane]	311 nM	734 nM	23.3 nM	1870 nM	53.2 nM	> 1000 nM	–
CCS(=O)(=O)n1cc2c3ccc(cc31)OC(C)CCn1cc(cn1)-c1cc(c(OC)cc1N1CCOCC1)Nc1nccc-2n1 (stereo not shown) [WQX-1-86, (Z)-1^1-(ethylsulfonyl)-4^6-methoxy-8-methyl-4^4-morpholino-1^1H,5^1H-9-oxa-3-aza-1(3,6)-indole-2(4,2)-pyrimidin-5(4,1)-pyrazol-4(1,3)-benzenacyclononaphane]	465 nM	–	8.2 nM	2000 nM	12.6 nM	> 1000 nM	–
CCS(=O)(=O)n1cc2c3ccc(cc31)OCC1(CC1)Cn1cc(cn1)-c1cc(c(OC)cc1N1CCOCC1)Nc1nccc-2n1 [WQX-1-87, (Z)-1′-(ethylsulfonyl)-6′-methoxy-4′-morpholino spiro[cyclopropane-7′-9-oxa-3-aza-1(3,6)-indole-2(4,2)-pyrimidin-5(4,1)-pyrazol-4(1,3)-benzenacyclononaphane]]	–	–	33 nM	–	63.3 nM	> 1000 nM	–
CCS(=O)(=O)n1cc2c3ccc(cc31)OCCCn1cc(cn1)-c1cc(c(OC)cc1CN1CCOCC1)Nc1nccc-2n1 [WQX-2-35, (Z)-1^1-(ethylsulfonyl)-4^6-methoxy-4^4-(morpholinomethyl)-1^1H,5^1H-9-oxa-3-aza-1(3,6)-indole-2(4,2)-pyrimidine-5(4,1)-pyrazole-4(1,3)-benzocyclononane]	–	–	1 nM	–	14.1 nM	141 nM	–
CCS(=O)(=O)n1cc2c3ccc(cc31)OCCCCCCOc1cc(ccc1N1CCOCC1)Nc1ncc(Cl)c-2n1 [reference compound]	–	–	9 nM	–	14.4 nM	190 nM	–
CCS(=O)(=O)n1cc2c3ccc(cc31)OCCCCCCOc1cc(c(C)cc1N1CCOCC1)Nc1ncc(Cl)c-2n1 [reference compound]	–	–	–	–	–	–	Cmax ([4]; IV 1 mg/kg): 2420 ± 165 ng/mL; clearance ([4]; IV 1 mg/kg): 16.2 ± 1.4 mL/min/kg; half-life ([4]; IV 1 mg/kg): 1.35 ± 0.18 h; Cmax ([4]; PO 5 mg/kg): 135 ng/mL; half-life ([4]; PO 5 mg/kg): 2.57 h; bioavailability ([4]; PO 5 mg/kg, read-out: F (oral bioavailability)): 11.9%
